Results taken from patent US8609651B2, “Pharmaceutical compositions of benzodiazepines and method of use thereof” (Jazz Pharmaceuticals, Inc., priority 2006, dated 2013).
Values after ≈ are worked out from the molar mass of the structure shown. Read-outs that look alike come from different tables or passages of the source.

Experiments:
[1] = Solubilities of clonazepam in glycol ethers at 3 temperatures; conditions: neat solvent, organic solvent or mixture, thermodynamic from solid
Protocol: The vials were then centrifuged at −5° C. and 5° C. for the −15° C. and 5° C. samples, respectively, at 5000 rpm for 2 minutes.

[2] = Human pharmacokinetic study (oral, intravenous, intranasal cross-over); conditions: 1 mg; for AUC / Cmax / Tmax / bioavailability: male, plasma; for bioavailability: other: intranasal, intranasal 1 mg
Protocol: The human pharmacokinetics, safety, and tolerability of the benzodiazepines compositions of the present invention formulated for intranasal delivery for therapeutic applications are evaluated using standard clinical procedures. Benzodiazepine compositions formulated for intranasal delivery are provided, for example, for application by the participants to intranasal mucosa.
A primary objective of initial studies in humans is to determine and compare pharmacokinetic profiles of three dosage forms of a benzodiazepine: oral, i.v., and intranasal, following single administration. An example of such a study in humans is a cross-over study performed in 12 healthy male volunteers. Plasma and urine level of clonazepam and 7-amino-clonazepam are determined, for example, using HPLC and UV detection. […] Further the initial studies in humans are used to determine local tolerability of intranasal formulation using questionnaire and the Visual Analog Scale (VAS). VAS is a validated instrument that has been used in numerous studies to quantify subjective […]. In addition, cognitive, sleepiness and mood effects are evaluated using questionnaires and scales (see, e.g., Example 10 below). Further, attention and vigilance may be evaluated using, for example, LEEDS Psychomotor Multiple Choice Reaction Time (MCRT) testing.
A human pharmacokinetic study was carried out as described in Example 8.
15 young, healthy male volunteers received a single dose of 1 mg clonazepam by oral, intravenous and intranasal routes in a three-period cross-over design.

[3] = Drug recovery, degradation and binding to nasal sheep mucosa; type: in vitro ADME; conditions: sheep nasal mucosa (excised tissue) in buffer, 37° C., read-out: % recovery in the presence of nasal sheep mucosa
Protocol: (i) Drug recovery, degradation and binding to nasal sheep mucosa: The effect of drug recovery, degradation and binding to sheep nasal mucosa was determined. Briefly, a known surface area (approx. 1 cm^2) of sheep nasal mucosa was added into a glass vial containing a known concentration (10 μg/mL) of each drug prepared in the receiver fluid (10% ethanol in pH 6 buffer). The content of the vial was allowed to equilibrate at 37° C. over a period of 48 h. At 24 h intervals, a sample was removed and assayed via HPLC. The percentage of drug recovered was calculated using Equation 4: % drug recovered=(drug concentration at t=Y/drug concentration at t=Z)×100 (Equation 4)
where, Y=specific time point at 37° C. (in the presence of nasal sheep mucosa); and Z=specific time point at 37° C. (in the absence of nasal sheep mucosa).
In addition to the stability against heat degradation, the effect of drug binding or degradation in the presence of nasal sheep mucosa was also determined (Table 6).

## O=C1CN=C(c2ccccc2Cl)c2cc([N+](=O)[O-])ccc2N1 [Clonazepam, 5-(2-chlorophenyl)-1,3-dihydro-7-nitro-2H-1,4-benzodiazepin-2-one]
[1]; 1,2-dimethyxoethane, 5 °C
  solubility: 35.7 mg/mL (≈ 113 mM)
[1]; 1,2-dimethyxoethane, 25 °C
  solubility: 39.3 mg/mL (≈ 124 mM)
[1]; 1,2-dimethyxoethane, -15 °C
  solubility: 35.2 mg/mL (≈ 111 mM)
[1]; di(ethylene glycol) diethyl ether, 5 °C
  solubility: 18.5 mg/mL (≈ 58.6 mM)
[1]; di(ethylene glycol) diethyl ether, 25 °C
  solubility: 19 mg/mL (≈ 60.2 mM)
[1]; di(ethylene glycol) diethyl ether, -15 °C
  solubility: 19.5 mg/mL (≈ 61.8 mM)
[1]; di(ethylene glycol) methyl ether, 5 °C
  solubility: 53.9 mg/mL (≈ 171 mM)
[1]; di(ethylene glycol) methyl ether, 25 °C
  solubility: 56.4 mg/mL (≈ 179 mM)
[1]; di(ethylene glycol) methyl ether, -15 °C
  solubility: 58.1 mg/mL (≈ 184 mM)
[1]; diethylene glycol monoethyl ether (DEGEE), 25 °C
  solubility: 41.8 mg/mL (≈ 132 mM)
[1]; diethylene glycol monoethyl ether, 5 °C
  solubility: 37.7 mg/mL (≈ 119 mM)
[1]; diethylene glycol monoethyl ether, -15 °C
  solubility: 43.3 mg/mL (≈ 137 mM)
[2]
  Cmax of the intranasal route as % of the intravenous route: 17%
  Cmax of the intranasal route as % of the oral route: 93%
[2]; inhaled or intranasal
  AUC: ~58 ng·h/mL
  Cmax: 7.12 ± 3.81 ng/mL
  Tmax: 12 min
[2]; intravenous
  Tmax: 6 min
[2]; iv
  AUC: ~106 ng·h/mL
  Cmax: 42.5 ± 10.8 ng/mL
[2]; bioavailability relative to intravenous
  bioavailability: 55%
[2]; bioavailability relative to oral
  bioavailability: 61%
[2]; po
  AUC: ~95 ng·h/mL
  Cmax: 7.64 ± 1.74 ng/mL
  Tmax: 120 min
[3]; buffer pH 5 (10% ethanol)
  recovery at 24 h, 10 μg/mL: 97.8%
  recovery at 48 h, 10 μg/mL: 96.5%
[3]; buffer pH 6 (10% ethanol)
  recovery at 24 h, 10 μg/mL: 97.5%
  recovery at 48 h, 10 μg/mL: 97.1%
[3]; buffer pH 7 (10% ethanol)
  recovery at 24 h, 10 μg/mL: 99.3%
  recovery at 48 h, 10 μg/mL: 97.8%
